Measured values published in paper PMC6136576, “Ubiquitin-Mimicking Peptides Transfer Differentiates by E1 and E2 Enzymes” (BioMed Research International, 2018).
Entries after “also recorded” stand apart in the source; their conditions may differ. Marks after values point to notes of the source that are not given here.

Assays:
[1] = molecular target: T1, Ube1 (Homo sapiens, UniProt P22314); assay: ATP-PPi exchange assay of Ube1 activation; format: biochemical; conditions: for Km / kcat / kcat/Km: ATP-PPi exchange catalyzed by Ube1, 0.05 uM Ube1, peptides 10-1000 uM, n=3; for Km: 50 mM Tris-Cl pH7.5, 10 mM MgCl2, 1 mM ATP, 1 mM [32P]pyrophosphate, room temperature; for Km / kcat: Michaelis-Menten fit; for kcat / kcat/Km: pH7.5, room temperature; for reactivity of free 7mer peptides with Ube1 (ATP-PPi exchange rate): free short peptides, Figure 1, n=3
T1 sequence (P22314 1-1058): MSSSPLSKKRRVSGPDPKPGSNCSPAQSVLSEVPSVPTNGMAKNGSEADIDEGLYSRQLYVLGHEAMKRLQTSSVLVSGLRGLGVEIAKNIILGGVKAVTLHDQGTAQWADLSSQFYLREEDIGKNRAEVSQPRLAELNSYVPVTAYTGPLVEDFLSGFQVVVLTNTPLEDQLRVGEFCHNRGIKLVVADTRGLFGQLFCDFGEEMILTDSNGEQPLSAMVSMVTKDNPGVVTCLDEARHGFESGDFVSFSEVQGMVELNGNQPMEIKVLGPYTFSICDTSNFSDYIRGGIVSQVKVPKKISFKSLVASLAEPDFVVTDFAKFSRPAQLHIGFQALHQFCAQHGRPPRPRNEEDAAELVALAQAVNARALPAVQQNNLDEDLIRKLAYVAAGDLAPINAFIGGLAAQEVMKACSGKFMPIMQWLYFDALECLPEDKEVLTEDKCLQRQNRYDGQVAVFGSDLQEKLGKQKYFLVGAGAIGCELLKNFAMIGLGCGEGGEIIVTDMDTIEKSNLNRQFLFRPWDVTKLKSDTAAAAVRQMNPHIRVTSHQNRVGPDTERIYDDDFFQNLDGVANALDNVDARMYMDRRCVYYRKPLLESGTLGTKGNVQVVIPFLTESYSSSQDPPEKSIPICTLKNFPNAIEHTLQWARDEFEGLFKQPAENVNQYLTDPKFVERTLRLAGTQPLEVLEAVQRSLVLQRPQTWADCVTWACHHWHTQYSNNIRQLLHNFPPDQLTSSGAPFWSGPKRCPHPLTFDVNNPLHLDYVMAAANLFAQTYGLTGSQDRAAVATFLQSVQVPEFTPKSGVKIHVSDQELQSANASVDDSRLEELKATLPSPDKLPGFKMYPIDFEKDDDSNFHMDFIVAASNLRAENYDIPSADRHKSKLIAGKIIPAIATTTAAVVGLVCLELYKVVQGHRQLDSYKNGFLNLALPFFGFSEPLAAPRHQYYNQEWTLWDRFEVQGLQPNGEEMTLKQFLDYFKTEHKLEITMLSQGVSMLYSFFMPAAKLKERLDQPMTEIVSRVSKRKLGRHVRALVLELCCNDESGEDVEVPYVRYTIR
Protocol: Initial velocity of Ube1-activated peptides either in the free state or on different frames was followed by the ATP-PPi exchange assay. 50 uL reactions were set up containing varying concentrations of peptides, 0.05 uM Ube1, 50 mM Tris-Cl, pH7.5, 10 mM MgCl2, and 1 mM ATP. The reactions were initiated by adding of 1 mM [^32P]pyrophosphate (4.6 Ci/mol). The reactions were incubated at room temperature and quenched at various time points by adding of 0.5 mL of a suspension of activated charcoal (1.6 % (w/v) charcoal, 0.1 M tetrasodium pyrophosphate, and 0.35 M perchloric acid) to each of the reactions. The charcoal was pelleted by centrifugation and each charcoal pellet was washed three times with 1 ml 2 % trichloroacetic acid. Finally the charcoal pellet was resuspended in 0.5 ml water and the suspension was added to 3.5 mL Ultima Gold LSC-cocktail (PerkinElmer). The radioactivity bound to charcoal was determined by liquid scintillation counting. To measure the kinetics of the peptides activation by Ube1, initial velocities of ATP-PPi exchange were determined with concentrations of peptides varying from 10 uM to 1000 uM. The kinetic data were fitted to the Michaelis-Menten equation with the data analysis software Origin.

[2] = tested on: E2 and E3; conditions: cited from earlier work

| Substance | Km [1] [µM] | kcat [1] | kcat/Km [1] | reactivity of free 7mer peptides with Ube1 (ATP-PPi exchange rate) [1] | transfer of free peptides to E2 and E3 [2] |
| --- | --- | --- | --- | --- | --- |
| VYRFYGG [P4, previously reported short peptide VYRFYGG, positive control, reference compound] | 251 ± 55.6 | 13.98 ± 2.08 min⁻¹ | 0.0557 µM/min | showed significant activity with Ube1 | could be transferred to E2 and E3 |
| ALKERGG [C3, heptamer peptide ALKERGG from Human splicing factor 3A subunit 1 isoform 1] |  |  |  | neither C8, containing Arg but only one Gly, nor C3, which possesses the C-terminal Gly-Gly but with a homologous replacement of Arg to Lys, showed any reactivity toward Ube1 |  |
| VLRLRGG [P1, reference compound] |  |  | 5.24e-05 µM/min | could not be conjugated to Ube1 |  |
| VQRYWGG [P3, previously reported short peptide VQRYWGG, positive control, reference compound] | 476 ± 163 | 6.68 ± 0.77 min⁻¹ | 0.014 µM/min | showed significant activity with Ube1 | could be transferred to E2 and E3 |
| AGRMLGG [C7, heptamer peptide AGRMLGG from Ubiquitin-like protein fubi and ribosomal protein S30 precursor] | 543 ± 122 | 5.54±1.37^c min^−1 | 1.01 x10^−2^c μM min^−1 | displayed affinity with Ube1 with a similar level of efficiency as P3 and P4; also recorded: highest activity of the three peptides identified in this study |  |
| IPRDRVG [C8, heptamer peptide IPRDRVG from Ubiquitin-fold modifier 1 (Homo sapiens)] |  |  |  | neither C8, containing Arg but only one Gly, nor C3, which possesses the C-terminal Gly-Gly but with a homologous replacement of Arg to Lys, showed any reactivity toward Ube1 |  |
| EPRLCGG [C1, heptamer peptide EPRLCGG from the motif of Human C1orf55] | 651 ± 49.3 | 2.29±0.59^a min^−1 | 3.52 x10^−3^a μM min^−1 | displayed affinity with Ube1 with a similar level of efficiency as P3 and P4 |  |
| VLRQLGG [C2, heptamer peptide VLRQLGG from Drosophila homologue of C1orf55] | 611 ± 23.1 | 3.73±0.87^b min^−1 | 6.10 x10^−3^b μM min^−1 | displayed affinity with Ube1 with a similar level of efficiency as P3 and P4 |  |
